Source: US7259146B2, “Neuroprotective peptides” (Ortho-McNeil Pharmaceutical, Inc., priority 2000, dated 2007)
Entries after “also recorded” stand apart in the source; their conditions may differ.

How the values were obtained:
[1] = system: rat cerebral cortical cultures; assay: Neurite outgrowth assay (MAP2-FITC immunofluorescence), cortical cultures; assay type: cell-based
Description: (§1) Dissociated hippocampal and cortical cell cultures were established from embryonic day 18 rat fetuses as previously described (Mattson et al., 1994). Briefly, fetuses were removed via cesarean section from pregnant moms (Sprague-Dawley) anesthetized with halothane according to the AVMA Panel on Euthanasia. Pups were decapitated and the brains were removed and placed in HEPES-buffered Hank's Balanced Salt solution (HBSS; Gibco). The hippocampi and cortices were dissected out and pooled according to tissue-type. Tissue was trypsinized for 15 min (1 mg/ml trypsin-HBSS; Worthington), rinsed with fresh HBSS, incubated in trypsin inhibitor (1 mg/ml; Sigma) for 5 min, rinsed again with fresh HBSS and then triturated in 1 ml fresh HBSS with a fire-polished glass pipette. Dissociated cells were seeded at 30,000 cells/well onto poly-D-lysine coated 96-well plates (Collaborative BioScience). Each well contained 100 μl of Eagle's Minimal Essential Media (MEM; Gibco) supplemented with 26 mM NaHCO3 (Sigma), 56 mM glucose (Sigma), 15 mM KCl (Sigma), 1 mM sodium pyruvate (Sigma), 1.1 mM L-glutamine (Sigma), 10% (v/v) heat-inactivated fetal bovine serum (Hyclone), and 0.001% gentamicin sulfate (Sigma) (pH 7.4). Cells were allowed to attach for 24 h in a humidified 37° C. 5% CO2 incubator before experimental treatment. The culture media was aspirated and exchanged with fresh media every three days.
Twenty-four hours after plating, cultures were treated with vehicle (PBS+0.1% BSA), 100 ng of various growth factors (brain derived neurotrophic factor (BDNF; Promega), glial-derived neurotrophic factor (GDNF; Promega), nerve growth factor (NGF; Boehringer Mannheim), basic fibroblast growth factor (bFGF; Boehringer Mannheim), insulin-like growth factor-1 (IGF-1; Boehringer Mannheim), neurotrophin-3 (NT3; Calbiochem), neurotrophin-4 (NT4; Calbiochem), ciliary neurotrophic factor (CNTF; Calbiochem), epidermal growth factor (EGF; Calbiochem), vascular endothelial growth factor (VEGF; Calbiochem)), or rhEPO (prepared same as above; 10 fM-10 nM)). Each treatment condition was run in quadruplicate or octuplicate. On the third day in culture, the media was aspirated off and replaced with fresh media and test compound. At one week in culture, the cells were fixed with 10% phosphate-buffered formalin for 15 min, then rinsed with DPBS (Sigma) and placed in blocking serum for 30 min (horse serum; 1:50 dilution in DPBS; Vector Labs). Cultures were rinsed again with DPBS and then incubated in primary antibody for 2 hr (microtubule-associated protein-2 (MAP-2) is a selective marker for dendritic processes; anti-mouse monoclonal (Chemicon); 1:1000 dilution of MAP-2 in antibody diluent (Zymed)). Negative control wells were incubated in antibody diluent alone. Background signal was determined by blank wells (cell-free) incubated with or without antibody. Cultures were rinsed again with DPBS and then placed in fluorescein for 1 hr (FITC; anti-mouse IgG; rat adsorbed; 1:50 dilution in DPBS; Vector Labs). Cultures were rinsed a final time with DPBS and then the plates were read on a Cytofluor 4000 fluorescence plate reader. Neurite outgrowth was expressed as percent change from control (vehicle; mean fluorescence±SD).
Dissociated hippocampal and cortical cell cultures were established from embryonic day 18 rat fetuses as previously described (Mattson et al., 1994). Briefly, fetuses were removed via cesarean section from pregnant moms (Sprague-Dawley) anesthetized with halothane according to the AVMA Panel on Euthanasia. Pups were decapitated and the brains were removed and placed in HEPES-buffered Hank's Balanced Salt solution (HBSS; Gibco). The hippocampi and cortices were dissected out and pooled according to tissue-type. […]

[2] = system: rat cerebral cortical neurons; assay: Glutamate toxicity assay in primary cortical cultures; assay type: cell-based
Description: as §1
Cortical cells were seeded at 200,000 cells/dish onto polyethylenimine-coated 35 mm culture dishes. Each dish contained 1.5 ml MEM supplemented as described above. On the seventh day in culture, four fields per pre-marked dish were visualized with a Nikon Diaphot inverted microscope (10×magnification) and photographed prior to experimental treatment. […] Cell survival was measured by counting viable cells in each field pre- and post-experimental treatment. […] Data were expressed as percent of control (vehicle; mean±SD).

PC-12 cells = assay: NGF withdrawal in PC-12 cells; assay type: cell-based, rat; conditions: for protection against NGF withdrawal-induced cell death (in words): treated 24 hr before NGF removal, viable cells at 12, 24, 48, 72 hr
Procedure: PC-12 cells (from a rat Pheochromocytoma) were cultured on poly-D-Lysine coated tissue culture plastic in DMEM containing 10% FBS and 5% Horse serum. To induce the neuronal phenotype in PC-12 cells, serum was removed and the cells were treated with NGF (50 ng/ml). Cells were grown for 7 days in the presence of the NGF then used for experiments.
PC-12 cells were cultured as described above in a 96 well poly-d-lysine coated multi-well plate and treated with rhEPO (1 pm to 10 nm) for 24 hr prior to NGF withdrawal. On the day of the experiment the cells were washed with buffer 3 times to remove NGF and then cultured in fresh media without NGF. Immediately following NGF washout cells were counted (t=0) to determine the number of living cells. Cell viability was based on morphological characteristics including phase brightness, presence of axons, and absence of blebbing. Cell counts were performed at 12 hr, 24 hr, 48 hr and 72 hr and the number of viable cells were scored.

EPO: purified, recombinant human EPO (rhEPO), formulated and distributed under the trademarks EPREX, ERYPO or PROCRIT
neurite outgrowth (in words) [1]: significant increase in neurite outgrowth; also recorded: promotes neurite outgrowth | concentration of maximal neurite outgrowth promoting activity ([1]; concentration dependent): maximal activity observed at pM levels | ability to increase neurite outgrowth compared to known growth factors ([1]; growth factors 100 ng): greater than or equal to that of known growth factors; also recorded: superior in inducing neurite outgrowth relative to the majority of known growth factors | neurite outgrowth response over control ([1]; rhEPO 10 fM-10 nM, one week in culture): 15–29% | concentration of greatest neuroprotective effect ([2]; cell survival greater than or equal to vehicle (no glutamate) treated cultures): greatest effects observed at pM concentrations | neuronal survival / protection against glutamate toxicity (in words) ([2]; pretreatment 24 h prior to 100 μM glutamate): significant increase in neuronal survival; also recorded: protects rat cerebral cortical neurons against glutamate toxicity | cell survival, maximal increase over parallel cultures treated with glutamate alone ([2]; pretreatment 24 h prior to 100 μM glutamate, counted 24 h post-glutamate): approximately 200% | optimum / peak concentration for the neuroprotective effect (PC-12 cells; growth factor withdrawal): 10 pm | neuroprotective effect at 1 nm (PC-12 cells; growth factor withdrawal, 1 nm): no significant effect | dose response curve for the neuroprotective effect (PC-12 cells; growth factor withdrawal, protection decreasing above 10 pm): bi-phasic | protection against NGF withdrawal-induced cell death (in words) (PC-12 cells): significant decrease in cell death; also recorded: increased the number of viable cells at each time point | protection against NGF withdrawal-induced cell death (in words) (PC-12 cells; listed as rhEPO): protects rat PC12 cells against NGF withdrawal-induced cell death
